Laboratory results taken from patent US20180228894A1, “INHIBITION OF CXCR4 SIGNALING IN CANCER IMMUNOTHERAPY” (Cambridge Enterprise Limited, priority 2013, published 2018).
Entries after “also recorded” stand apart in the source; their conditions may differ.

Experiments:
[1] = system: autochthonous mouse pancreatic tumors (KPC model); assay: In vitro T cell exclusion assay: vibratome sections of KPC pancreatic tumors overlaid with activated T cells; type: cell-based; conditions: culture in the presence of the substance, 37° C. for up to 120 min
Source text: This assay tests the mechanism of T cell exclusion from the vicinity of the cancer cells. It also allows screening of drugs and tumors for potential efficacy. This in vitro assay may also be used to screen other drugs (anti-CXCL12, anti-CXCR4, other CXCR4-directed small molecules) that may interfere with the CXCL12/CXCR4 interaction.
300 um vibratome sections of fresh autochthonous mouse pancreatic tumors (the mouse KPC model of Hingorani et al., Cancer Cell 2005) are overlaid with labeled mouse splenic T cells that have been activated in vitro for several days with anti-CD3 and IL-2 (this generates a T cell population that is like the effector T cells that normally infiltrate inflamed tissues/tumors). The tumor tissue+labeled T cells are then cultured at 37° C. for up to 120 min, after which the non-infiltrated T cells are washed off. The vibratome sections are then fixed for staining (p53 which identifies cancer cells) and SHG (to visualize collagen/stromal regions) by confocal microscopy.

LL2/OVA tumors = conditions: AMD3100 30 mg/ml osmotic pump; C57BL/6 and Rag2−/− mice
Description: C57BL/6 were purchased from Charles River UK and Rag2−/− mice were bred at the local establishment. 2×10^5 LL2/OVA cells were injected subcutaneously in RPMI with 1% heat inactivated mouse serum. Tumor sizes were measured using calipers, measuring the long (L) and short (S) dimension, and tumor volumes were calculated using the equation: volume=(L×S2)/2.

PDA [2] = assay: Immunofluorescent confocal microscopy / ARIOL scanning of KPC tumor sections after treatment; type: in vivo, mouse
Description: (§1) All experiments were performed in accordance with institutional guidelines and were approved by the UK Home Office and the animal ethics committee of CRUK and the University of Cambridge. Mice were housed at a 12-hour light/12-hour dark cycle and received diet and water ad libitum. The generation of LSL-[…]; LSL10 Tp53R172H/+; Pdx-1-Cre (KPC) and FAP-DTR BAC transgenic mice has been described previously (8, 10). These strains were crossed to generate KPCD (Kras; p53; Cre; DTR) mice. KPC and KPCD mice were screened for tumors from an age of 60 days by abdominal palpation. Tumors were verified by high-resolution ultrasound (Vevo 2100, VisualSonics). Mice with average tumor diameters between 5-8 mm (corresponding to approx. 200 mm3 volume) were enrolled on 6 day treatment studies with 2 follow-up tumor size measurements (day 3 and 6). Where possible, tumors were assessed at multiple angles and the volumes averaged. KPC(−/+DTR Tg) mice were treated every 48 h with 25 ng/g DTx (List Biologicals) in PBS, […] α-PD1 (10F.9G2, Biolegend), 100 μg α-CTLA-4 (9H10, Biolegend) or isotype control antibody by intraperitoneal injection. […] For T-cell depletion studies mice received […] each of α-CD4 (GK1.5, Biolegend) and α-CD8α (53-6.7, Bioloegend) or respective isotype control antibodies for 3 consecutive […] before treatment start and on days 2 and 5 during the course of treatment via intraperitoneal injection.
5 μm frozen tissue sections were fixed in 4% paraformaldehyde (PFA) for 10 minutes at room temperature. Slides were blocked for one hour in 10% donkey serum (Sigma Aldrich)/0.2% Triton x-100. Primary antibodies were incubated overnight at 4° C. Following washing, slides were incubated for one hour at room temperature with appropriate secondary antibody and DAPI counterstain. Slides were subsequently incubated in 0.3M glycine for 10 minutes to reduce autofluorescence and mounted in Hydromount aqueous mounting medium (Fisher Scientific). Images were acquired on a Leica SP5 tandem confocal microscope. For analysis of p53 and Treg staining slides were scanned and analyzed using the automated ARIOL XT system.

PDA [3] = assay: PDA tumor volume by ultrasound in KPC / KPCD mice, 6 day treatment; type: in vivo, mouse
Description: as §1

[4] = AMD3100 in combination with α-PD-L1, 24 h treatment

Compound | Localization of T cells in tumor sections [1] | Control of subcutaneous LL2 tumors (tumor volume) (LL2/OVA tumors) | Composition of residual tumors (PDA [2]; AMD3100 alone, ARIOL scanning) | Proliferating Ki67+ cells (PDA [2]; AMD3100 and anti-PD-L1, 6 days (FIG. 11, panel E)) | Foxp3+ cells in the tumors (PDA [2]; AMD3100 high in combination with α-PD-L1, 24 h) | Accumulation of T cells amongst cancer cells (PDA [2]; [4]) | Frequency of p53+ LOH cancer cells (PDA [2]; [4]) | Composition of residual tumors (PDA [2]; AMD3100 with α-PD-L1, ARIOL scanning) | Presence of p53+ LOH cancer cells in tumors (PDA [2]; AMD3100 with α-PD-L1, after 6 days of treatment) | Accumulation of T cells amongst cancer cells (PDA [2]; single agent, 24 h treatment) | Presence of p53+ LOH cancer cells in tumors (PDA [2]; single agent, after 6 days of treatment) | Tumor growth (PDA [3]; AMD3100 by osmotic pump, presence or absence of depleting antibodies to CD4+ and CD8+ T cells) | Decline in PDA volume (PDA [3]; higher dose AMD3100 in combination with α-PD-L1, by 48 h, maintained for 6 days) | PDA growth (PDA [3]; higher dose of AMD3100 (osmotic pump)) | Interaction of AMD3100 with α-PD-L1 (PDA [3]; murine PDA, combination)
c1cc(CN2CCCNCCNCCCNCC2)ccc1CN1CCCNCCNCCCNCC1 [AMD3100, 1,1′-[1,4-phenylenebis(methylene)]bis [1,4,8,11-tetraazacyclotetradecane]] | T cells to be found in both stromal and cancer cell regions | T cell-dependent control of subcutaneous immunogenic LL2 tumors | comprised of premalignant CK19+ epithelial cells and CD45+ inflammatory cells | diminution in proliferating Ki67+ cells | increase | amplified this effect; also recorded: induce the accumulation of CD3+ T cells in cancer-cell-containing regions of PDA | decreased the frequency of p53+ LOH cells; also recorded: loss of cancer cells | comprised of premalignant CK19+ epithelial cells and CD45+ inflammatory cells | rare | increased the accumulation of T cells; also recorded: exclusion is overcome | rare | slowed by AMD3100 in a T cell-dependent manner | 15% | almost completely arrested PDA growth | remarkable synergistic interaction
Z-VAD | T cells accumulating also amongst cancer cells |  |  |  |  |  |  |  |  |  |  |  |  |  | 
